# How the values were obtained:
# [1] = biological target: T1, human 5HT7 receptor (Homo sapiens, UniProt P34969); experiment: Binding to human 5HT7 receptor; settings: cloned human receptor
# T1 construct: expressed in transfected cells
# Protocol: Human 5-ET7 Receptor: A LM(tk−) clonal cell line stably transfected with the gene encoding the 5HT7 receptor subtype was prepared as described above.
# [2] = biological target: T2, human dopamine D3 receptor (Homo sapiens, UniProt P35462); experiment: Binding to human dopamine D3 receptor ([3H]spiperone); settings: cloned human receptor
# T2 construct: expressed in transfected cells; host or cells: COS-7 cells, transient
# T2 sequence (P35462 whole entry): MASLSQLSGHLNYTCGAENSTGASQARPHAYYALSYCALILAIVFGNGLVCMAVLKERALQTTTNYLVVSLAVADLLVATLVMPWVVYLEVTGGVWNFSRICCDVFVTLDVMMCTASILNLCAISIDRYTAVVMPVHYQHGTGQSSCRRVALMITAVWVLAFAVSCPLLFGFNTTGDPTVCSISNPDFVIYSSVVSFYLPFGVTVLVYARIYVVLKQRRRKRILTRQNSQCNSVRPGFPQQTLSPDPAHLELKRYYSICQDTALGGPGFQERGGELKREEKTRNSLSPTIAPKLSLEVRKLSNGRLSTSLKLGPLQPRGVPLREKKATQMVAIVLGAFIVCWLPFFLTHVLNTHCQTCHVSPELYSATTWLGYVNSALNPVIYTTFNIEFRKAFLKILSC
# [3] = biological target: T3, human 5HT1F receptor (Homo sapiens, UniProt P30939); experiment: Binding to human 5HT1F receptor ([3H]serotonin); settings: cloned human receptor
# T3 construct: expressed in transfected cells
# T3 sequence (P30939 1-366): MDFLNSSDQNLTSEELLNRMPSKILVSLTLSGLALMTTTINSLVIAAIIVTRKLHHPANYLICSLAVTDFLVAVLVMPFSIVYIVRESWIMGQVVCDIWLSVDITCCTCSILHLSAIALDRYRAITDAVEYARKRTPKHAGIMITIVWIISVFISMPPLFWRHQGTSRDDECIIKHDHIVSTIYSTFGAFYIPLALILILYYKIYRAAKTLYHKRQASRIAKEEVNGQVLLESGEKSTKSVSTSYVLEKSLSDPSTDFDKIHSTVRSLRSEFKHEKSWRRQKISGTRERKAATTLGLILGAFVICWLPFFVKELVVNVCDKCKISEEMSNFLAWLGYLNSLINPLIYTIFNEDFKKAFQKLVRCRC
# Protocol: 5HT1Dα, 5HT1Dβ, 5HT1E, 5HT1F Receptors: LM(tk−) clonal cell lines stably transfected with the genes encoding each of these 5HT receptor subtypes were prepared as described above. The cell line for the 5HT1Dα, receptor, designated as Ltk−8-30-84, was deposited on Apr. 17, 1990, and accorded ATCC Accession No. CRL 10421. The cell for the 5HT1Dβ receptor, designated as Ltk−11, was deposited on Apr. 17, 1990, and accorded ATCC Accession No. CRL 10422. The cell line for the 5HT1E receptor, designated 5 HT1E-7, was deposited on Nov. 6, 1991, and accorded ATCC Accession No. CRL 10913. The cell line for the 5HT1F receptor, designated L-5-HT1F, was deposited on Dec. 27, 1991, and accorded ATCC Accession No. ATCC 10957. Membrane preparations comprising these receptors were prepared as described below, and suspended in 50 mM Tris-HCl buffer (pH 7.4 at 37° C.) containing 10 mM MgCl2, 0.2 mM EDTA, 10 μM pargyline, and 0.1% ascorbate. The binding of compounds was determined in competition binding assays by incubation for 30 minutes at 37° C. in the presence of 5 nM [^3H) serotonin. Nonspecific binding was determined in the presence of 10 μM serotonin. The bound radioligand was separated by filtration through GF/B filters using a cell harvester.
# [4] = biological target: T4, human α1d receptor (Homo sapiens, UniProt P25100); experiment: Binding to cloned human α1d adrenergic receptor
# T4 construct: expressed in transfected cells
# T4 sequence (P25100 whole entry): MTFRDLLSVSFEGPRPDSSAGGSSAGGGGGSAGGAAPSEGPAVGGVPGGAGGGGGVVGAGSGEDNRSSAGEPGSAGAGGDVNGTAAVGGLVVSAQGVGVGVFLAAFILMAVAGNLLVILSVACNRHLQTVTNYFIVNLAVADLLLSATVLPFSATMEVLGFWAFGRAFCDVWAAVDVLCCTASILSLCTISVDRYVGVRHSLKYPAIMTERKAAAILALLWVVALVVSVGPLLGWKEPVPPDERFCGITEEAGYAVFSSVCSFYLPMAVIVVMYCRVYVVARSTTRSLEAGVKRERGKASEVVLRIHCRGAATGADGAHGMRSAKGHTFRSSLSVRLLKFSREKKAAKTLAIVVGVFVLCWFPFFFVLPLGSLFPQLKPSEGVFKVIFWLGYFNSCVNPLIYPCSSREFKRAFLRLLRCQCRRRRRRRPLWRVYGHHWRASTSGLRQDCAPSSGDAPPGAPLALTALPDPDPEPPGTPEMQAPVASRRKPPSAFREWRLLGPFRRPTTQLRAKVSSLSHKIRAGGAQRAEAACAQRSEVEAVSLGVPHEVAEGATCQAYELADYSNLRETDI
# Source text: α1 Human Adrenergic Receptors: To determine the binding of compounds to human α1 receptors, LM(tk−) cell lines stably transfected with the genes encoding the α1a, α1b, and α1d receptors were used. The nomenclature describing the α1 receptors was changed recently, such that the receptor formerly designated α1a is now designated α1d, and the receptor formerly designated α1c is now designated α1a (ref).
# [5] = biological target: T5, human Y2 receptor (Homo sapiens, UniProt P49146); experiment: Radioligand binding to cloned human Y2 receptor (125I-PYY); settings: cloned human Y2, stably transfected cells, read-out: Binding Affinity (K1 (nM) vs. 125I-PYY) Human Receptor Y2
# T5 construct: expressed in transfected cells
# T5 sequence (P49146 1-381): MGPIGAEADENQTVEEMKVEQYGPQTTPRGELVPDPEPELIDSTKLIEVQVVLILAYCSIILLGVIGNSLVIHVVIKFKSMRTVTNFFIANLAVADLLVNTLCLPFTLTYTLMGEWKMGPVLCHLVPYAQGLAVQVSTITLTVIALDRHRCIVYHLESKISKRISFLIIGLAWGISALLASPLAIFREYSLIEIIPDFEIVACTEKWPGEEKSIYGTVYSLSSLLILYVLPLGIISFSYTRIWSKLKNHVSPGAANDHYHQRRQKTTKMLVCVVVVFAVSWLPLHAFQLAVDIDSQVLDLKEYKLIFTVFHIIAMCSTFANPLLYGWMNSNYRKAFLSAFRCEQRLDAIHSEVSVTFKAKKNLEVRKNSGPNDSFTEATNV
# Protocol: Human Y1, human Y2, and rat Y5 receptors were co-transfected with a G-418 resistant gene into the human embryonic kidney 293 cell line by a calcium phosphate transfection method (Cullen, 1987). Stably transfected cells were selected with G-418. Human Y4 and human Y5 receptors were similarly transfected into mouse fibroblast LM(tk−) cells and NIH-3T3 cells.
# Binding of the compounds of the present invention to the human Y1, Y2, Y4 and Y5 receptors was evaluated using stably transfected 293 or LM(tk−) cells as described above. Stably transfected cell lines which may be used for binding assays include, for example, for the human Y1 receptor, 293-hY1-5 (deposited Jun. 4, 1996, under ATCC Accession No. CRL-12121), for the human Y2 receptor, 293-hY2-10 (deposited Jan. 27, 1994, under ATCC Accession No. CRL-11537), for the human Y4 receptor, L-hY4-3 (deposited Jan. 11, 1995, under ATCC Accession No. CRL-11779), and for the human Y5 receptor, L-hY5-7 (deposited Nov. 15, 1995, under ATCC Accession No. CRL-11995).
# Membranes were harvested from COS-7 cells 48 hours after transient transfection. Adherent cells were washed twice in ice-cold phosphate buffered saline (138 mM NaCl, 8.1 mM Na2HPO4, 2.5 mM KCl, […], 0.9 mM CaCl2, 0.5 mM MgCl2, pH 7.4) and lysed by sonication in ice-cold sonication buffer (20 mM Tris-HCl, 5 mM EDTA, pH 7.7). Large particles and debris were cleared by low speed centrifugation (200 x g, 5 min, 4° C.). Membranes were collected from the supernatant fraction by centrifugation (32,000 x g, 18 min, […] ), washed with ice-cold hypotonic buffer, and collected again by centrifugation (32,000 x g, 18 min, 4° C.). […] Protein concentration was measured by the Bradford method (Bradford, 1976) using Bio-Rad Reagent, with bovine serum albumin as a standard. Membranes were held on ice for up to one hour and used fresh, or flash-frozen and stored in liquid nitrogen.
# Membranes were prepared similarly from 293, LM(tk−), and NIH-3T3 cells. To prepare membranes from baculovirus infected cells, 2×10^7 Sf21 cells were grown in 150 mm tissue culture dishes and infected with a high-titer stock of hY5BB3. Cells were incubated for 2-4 days at 27° C., no CO2 be fore harvesting and membrane preparation as described above.
# [6] = system: food intake in food-deprived rats; experiment: Food intake in food-deprived rats (24 h food deprivation); format: in vivo, rat; set-up: concentration or dose not given beside the values; settings: rats after 24 h food deprivation; two hours after administration of test compound
# T1 sequence (P34969 whole entry): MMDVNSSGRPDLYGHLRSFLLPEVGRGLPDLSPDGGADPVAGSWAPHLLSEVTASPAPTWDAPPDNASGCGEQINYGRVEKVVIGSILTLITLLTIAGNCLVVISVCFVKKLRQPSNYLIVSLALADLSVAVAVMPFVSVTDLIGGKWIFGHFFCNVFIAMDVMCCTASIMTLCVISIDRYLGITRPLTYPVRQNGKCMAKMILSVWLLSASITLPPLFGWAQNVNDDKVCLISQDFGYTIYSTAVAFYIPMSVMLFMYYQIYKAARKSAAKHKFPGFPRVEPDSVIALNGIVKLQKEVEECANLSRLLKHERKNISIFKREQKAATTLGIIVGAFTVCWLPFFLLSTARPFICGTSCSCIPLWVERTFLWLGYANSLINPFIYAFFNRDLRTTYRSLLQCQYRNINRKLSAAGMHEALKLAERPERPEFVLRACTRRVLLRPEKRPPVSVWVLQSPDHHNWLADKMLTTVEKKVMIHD
Compound,Receptor (pKi) 5HT7 [1],Receptor (pKi) D3 [2],Receptor (pKi) 5HT1F [3],Receptor (pKi) α1d [4],Ki [5] [nM],"Two-hour food intake, percentage of intake compared to control rats, Mean (%) [6] [%]"
Cl.O=S(=O)(NCC1CCC(CNCC2CCc3ccccc3C2)CC1)c1cccc2ccccc12 (stereo not drawn) [Example 32],6.42,6.69,≤ 5.30,6.90,955,36
Cl.O=[N+]([O-])c1ccccc1S(=O)(=O)NCC1CCC(CNCC2CCc3ccccc3C2)CC1 (stereo not drawn) [Example 36],6.37,6.35,≤ 5.30,7.01,7760,35

# From patent US6734182B2, “Aryl sulfonamides and sulfamide derivatives and uses thereof” (Synaptic Pharmaceutical Corporation, priority 1995, dated 2004)
